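96-well plates; 48 h exposure; 5 concentrations. Endpoints by linear interpolation between flanking doses. Not reached: highest tested concentration assigned. At the GI50, growth is halved.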 The source made the active and inactive calls. Rule as the data show it: active = GI50 up to about 1.1 µM and inactive = higher.
How the values were obtained:
Experiment in all cases: DTP human tumour cell line panel, 48 h
OVCAR-8 = test system: OVCAR-8
LOX IMVI = test system: LOX IMVI
COLO 205 = test system: COLO 205
M14 = test system: M14
NCI-H522 = test system: NCI-H522
OVCAR-4 = test system: OVCAR-4
UO-31 = test system: UO-31
ACHN = test system: ACHN
SN12C = test system: SN12C
RPMI-8226 = test system: RPMI-8226
HL-60 = test system: HL-60
SW-620 = test system: SW-620
SK-MEL-28 = test system: SK-MEL-28
SK-OV-3 = test system: SK-OV-3
K562 = test system: K562
OVCAR-5 = test system: OVCAR-5
SNB-75 = test system: SNB-75
HOP-92 = test system: HOP-92
786-0 = test system: 786-0

Measured: GI50

O=c1n(Cc2ccccc2)c2ccccc2n1CC1CS1 (configuration not stated)
inactive: OVCAR-8 > 100 µM | LOX IMVI > 100 µM | COLO 205 > 100 µM | M14 > 100 µM | NCI-H522 > 100 µM | OVCAR-4 > 100 µM | UO-31 > 100 µM | ACHN > 100 µM | SN12C > 100 µM | RPMI-8226 > 100 µM | HL-60 > 100 µM | SW-620 > 100 µM | SK-MEL-28 > 100 µM | SK-OV-3 > 100 µM | K562 > 100 µM | OVCAR-5 > 100 µM | SNB-75 58.6 µM | HOP-92 > 100 µM

CO/C(=N\N=C\c1ccc(Cl)cc1)c1ccncc1
inactive: OVCAR-8 > 100 µM | COLO 205 > 100 µM | M14 > 100 µM | NCI-H522 > 100 µM | OVCAR-4 > 100 µM | UO-31 > 100 µM | ACHN > 100 µM | SN12C > 100 µM | RPMI-8226 > 100 µM | HL-60 > 100 µM | SW-620 > 100 µM | SK-MEL-28 > 100 µM | SK-OV-3 > 100 µM | K562 > 100 µM | OVCAR-5 > 100 µM | SNB-75 63 µM | HOP-92 > 100 µM

Cc1ccc(N2C(=O)N(c3ccc(C)cc3)C3(SC=NN3C)C2=O)cc1 (configuration not stated)
inactive: OVCAR-8 > 100 µM | LOX IMVI 32.3 µM | COLO 205 91 µM | M14 69.8 µM | NCI-H522 37.8 µM | OVCAR-4 95.5 µM | UO-31 42 µM | ACHN 65.6 µM | SN12C > 100 µM | RPMI-8226 49.2 µM | HL-60 22.6 µM | SW-620 > 100 µM | 786-0 > 100 µM | SK-MEL-28 > 100 µM | SK-OV-3 > 100 µM | K562 40.6 µM | SNB-75 > 100 µM | HOP-92 > 100 µM

CC(C)(C1=NC(C(C)(C)C)CO1)C1=N[C@@H](C(C)(C)C)CO1 (some centres not stated)
inactive: OVCAR-8 > 100 µM | LOX IMVI > 100 µM | COLO 205 > 100 µM | M14 > 100 µM | NCI-H522 > 100 µM | OVCAR-4 > 100 µM | UO-31 > 100 µM | ACHN > 100 µM | SN12C > 100 µM | RPMI-8226 > 100 µM | HL-60 > 100 µM | SW-620 > 100 µM | 786-0 > 100 µM | SK-MEL-28 > 100 µM | SK-OV-3 > 100 µM | K562 > 100 µM | OVCAR-5 > 100 µM | SNB-75 > 100 µM | HOP-92 > 100 µM

CCc1cccc(CC)c1NC1=CC(=O)C(=O)c2ccccc21
inactive: OVCAR-8 16.7 µM | LOX IMVI 9.84 µM | COLO 205 > 100 µM | M14 13.5 µM | NCI-H522 14.1 µM | OVCAR-4 13.7 µM | UO-31 18.7 µM | ACHN 13.1 µM | SN12C 27.5 µM | RPMI-8226 40.2 µM | HL-60 > 100 µM | SW-620 16.5 µM | 786-0 18.9 µM | SK-MEL-28 15.6 µM | SK-OV-3 31.6 µM | K562 59.4 µM | OVCAR-5 17.1 µM | SNB-75 22.8 µM | HOP-92 15.1 µM

O/N=C/c1ncccc1C1OCCO1
inactive: OVCAR-8 > 100 µM | LOX IMVI > 100 µM | COLO 205 > 100 µM | M14 > 100 µM | NCI-H522 > 100 µM | OVCAR-4 > 100 µM | UO-31 > 100 µM | ACHN > 100 µM | SN12C > 100 µM | HL-60 > 100 µM | SW-620 > 100 µM | 786-0 > 100 µM | SK-MEL-28 > 100 µM | SK-OV-3 > 100 µM | K562 > 100 µM | OVCAR-5 > 100 µM | SNB-75 > 100 µM | HOP-92 > 100 µM

CN1C=C(C(N)=O)Cc2ccsc21
inactive: OVCAR-8 > 100 µM | COLO 205 > 100 µM | M14 > 100 µM | NCI-H522 > 100 µM | OVCAR-4 > 100 µM | UO-31 > 100 µM | ACHN > 100 µM | SN12C > 100 µM | RPMI-8226 > 100 µM | HL-60 > 100 µM | SW-620 > 100 µM | 786-0 > 100 µM | SK-MEL-28 > 100 µM | SK-OV-3 > 100 µM | K562 > 100 µM | OVCAR-5 > 100 µM | SNB-75 > 100 µM | HOP-92 > 100 µM

N/N=c1\c2ccccc2c2ccc3c4ccccc4/c(=N\N)c3c12
inactive: OVCAR-8 > 100 µM | COLO 205 > 100 µM | M14 > 100 µM | NCI-H522 > 100 µM | OVCAR-4 > 100 µM | UO-31 > 100 µM | ACHN > 100 µM | SN12C > 100 µM | RPMI-8226 > 100 µM | HL-60 > 100 µM | SW-620 > 100 µM | 786-0 > 100 µM | SK-MEL-28 > 100 µM | SK-OV-3 > 100 µM | K562 > 100 µM | OVCAR-5 > 100 µM | SNB-75 37.3 µM | HOP-92 > 100 µM

CCC1N2CCCCC2[C@@H]2c3[nH]c4ccccc4c3CCN12 (some centres not stated)
inactive: OVCAR-8 > 100 µM | COLO 205 > 100 µM | M14 > 100 µM | NCI-H522 > 100 µM | OVCAR-4 > 100 µM | UO-31 > 100 µM | ACHN > 100 µM | SN12C > 100 µM | RPMI-8226 > 100 µM | HL-60 > 100 µM | SW-620 > 100 µM | 786-0 > 100 µM | SK-MEL-28 > 100 µM | SK-OV-3 > 100 µM | K562 > 100 µM | OVCAR-5 > 100 µM | SNB-75 77.8 µM | HOP-92 > 100 µM

COc1cc2c3cc1Oc1c(O)c(OC)cc4c1C(Cc1ccc(O)c(c1)Oc1ccc(cc1)CC3N(C)CC2)N(C)CC4 (configuration not stated)
inactive: OVCAR-8 14.3 µM | LOX IMVI 3.01 µM | COLO 205 19.5 µM | M14 3.11 µM | NCI-H522 15.1 µM | OVCAR-4 13.8 µM | UO-31 15.8 µM | ACHN 19 µM | SN12C 15.3 µM | RPMI-8226 15.1 µM | HL-60 21.5 µM | SW-620 4.44 µM | 786-0 13.2 µM | SK-MEL-28 18.3 µM | SK-OV-3 23.3 µM | K562 3.03 µM | OVCAR-5 22.7 µM | SNB-75 15 µM | HOP-92 11.9 µM

c1ccc(N2CCN(CCCN3CCc4c([nH]c5ccccc45)C3c3cccnc3)CC2)cc1 (configuration not stated)
inactive: OVCAR-8 > 100 µM | LOX IMVI 41.2 µM | COLO 205 20.8 µM | M14 20.2 µM | NCI-H522 86.9 µM | OVCAR-4 98.9 µM | UO-31 > 100 µM | ACHN > 92.9 µM | SN12C > 54.6 µM | RPMI-8226 76.2 µM | HL-60 20 µM | SW-620 > 100 µM | 786-0 33.9 µM | SK-MEL-28 61.9 µM | SK-OV-3 > 100 µM | K562 23.6 µM | OVCAR-5 > 100 µM | SNB-75 > 100 µM | HOP-92 > 100 µM

CCOC(=O)C(C(=O)OCC)c1ccc([N+](=O)[O-])o1
inactive: OVCAR-8 5.24 µM | LOX IMVI 3.17 µM | COLO 205 3.27 µM | M14 13.7 µM | NCI-H522 1.74 µM | OVCAR-4 17.3 µM | UO-31 15.6 µM | ACHN 10.2 µM | SN12C 18 µM | RPMI-8226 6.87 µM | HL-60 2.65 µM | SW-620 3.39 µM | 786-0 6.64 µM | SK-MEL-28 14.1 µM | SK-OV-3 62.2 µM | K562 3.43 µM | OVCAR-5 18.2 µM | SNB-75 20 µM | HOP-92 6.62 µM

COc1ccc(C2C(Cl)C(=O)N2NC(=O)c2ccc(NC(C)=O)cc2)cc1OC (configuration not stated)
inactive: OVCAR-8 > 100 µM | COLO 205 > 100 µM | NCI-H522 > 100 µM | UO-31 > 100 µM | ACHN > 100 µM | RPMI-8226 > 100 µM | HL-60 > 100 µM | SW-620 > 100 µM | SK-MEL-28 > 100 µM | SK-OV-3 > 100 µM | K562 > 100 µM | OVCAR-5 > 100 µM | SNB-75 > 100 µM | HOP-92 > 100 µM

COc1ccc(NC(=O)C(=O)Cc2ccc([N+](=O)[O-])c([N+](=O)[O-])c2CC(=O)C(=O)Nc2ccc(OC)cc2OC)c(OC)c1
inactive: OVCAR-8 > 100 µM | LOX IMVI > 100 µM | COLO 205 > 100 µM | M14 > 100 µM | NCI-H522 58.6 µM | OVCAR-4 > 100 µM | UO-31 > 100 µM | ACHN > 100 µM | SN12C > 100 µM | RPMI-8226 > 100 µM | HL-60 > 100 µM | SW-620 > 100 µM | 786-0 > 100 µM | SK-MEL-28 > 100 µM | SK-OV-3 > 100 µM | K562 > 100 µM | OVCAR-5 > 100 µM | SNB-75 96.2 µM | HOP-92 > 100 µM

CC1(c2ccc(F)cc2)C(C#N)C(=O)NC(=O)C1C#N (configuration not stated)
inactive: OVCAR-8 > 100 µM | LOX IMVI > 100 µM | COLO 205 > 100 µM | M14 > 100 µM | NCI-H522 > 100 µM | OVCAR-4 > 100 µM | UO-31 83.8 µM | ACHN > 100 µM | SN12C > 100 µM | RPMI-8226 > 100 µM | HL-60 > 100 µM | SW-620 > 100 µM | 786-0 > 100 µM | SK-MEL-28 > 100 µM | SK-OV-3 > 100 µM | K562 > 100 µM | OVCAR-5 > 100 µM | SNB-75 32.3 µM | HOP-92 > 100 µM
